For assay [1], the system named is MCF-7 cells. Nature of the assay: MCF7 Viability Assay (Breast Cancer Cell Viability Assay). It is filed as cell-based. Particulars: 5 days' compound exposure, CellTiter-Glo; for IC50: Homo sapiens, MCF7, 120 h. The procedure: MCF-7 cells were adjusted to a concentration of 20,000 cells per mL in RPMI containing 10% FBS and 20 mM HEPES. 16 microliters of the cell suspension (320 cells) was added to each well of a 384 well plate, and the cells were incubated overnight to allow the cells to adhere. The following day an eleven point, serial semilog dilution of each compound was added to the cells in 16 μL at a final concentration ranging from 0.3-0.000003 μM. After 5 days' compound exposure, 16 μL of CellTiter-GLo (Promega, Madison Wis.) was added to the cells, and the relative luminescence units (RLUs) of each well were determined. CellTiter-Glo added to 32 μL of medium without cells was used to obtain a background value. The Percent viability of each sample was determined as follows: (RLU sample-RLU background/RLU untreated cells-RLU background)×100=% viability.
Background: In ATP-based viability assays light output follows the ATP content of the culture.

For assay [2], the target named is T1, ER-α (Homo sapiens, UniProt P03372).
T1 construct: endogenous in cells; host or cells: MCF-7
T1 sequence (P03372 1-595): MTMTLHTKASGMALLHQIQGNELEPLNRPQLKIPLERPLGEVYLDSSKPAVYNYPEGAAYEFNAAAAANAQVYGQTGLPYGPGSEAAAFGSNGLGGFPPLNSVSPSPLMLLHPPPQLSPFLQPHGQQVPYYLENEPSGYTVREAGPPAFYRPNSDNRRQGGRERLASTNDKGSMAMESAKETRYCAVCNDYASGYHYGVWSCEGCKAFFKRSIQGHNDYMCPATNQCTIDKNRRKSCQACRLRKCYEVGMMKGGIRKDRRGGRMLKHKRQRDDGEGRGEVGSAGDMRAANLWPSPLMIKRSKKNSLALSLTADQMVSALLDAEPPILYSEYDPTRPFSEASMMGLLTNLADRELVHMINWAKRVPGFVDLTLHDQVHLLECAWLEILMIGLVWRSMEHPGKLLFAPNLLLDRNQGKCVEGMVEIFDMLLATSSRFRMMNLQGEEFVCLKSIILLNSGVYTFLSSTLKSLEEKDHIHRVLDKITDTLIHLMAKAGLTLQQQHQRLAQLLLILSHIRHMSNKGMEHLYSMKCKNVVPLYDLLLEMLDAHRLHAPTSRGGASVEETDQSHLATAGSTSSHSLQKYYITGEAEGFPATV
Kind of assay: Breast Cancer Cell ER-α In Cell Western Assay (SP1). In kind it is cell-based. The note with it: MCF-7 cells, 4 or 24 hr post compound addition, SP1 antibody; for Emax: MCF7, read-out: ER-α In Cell Western Assay (SP1) Max Response; for DC50: read-out: ER-α In Cell Western Assay (SP1) IC50. As for the experimental part:
MCF-7 cells were adjusted to a concentration of 200,000 cells per mL in RPMI containing 10% charcoal-stripped FBS and 20 mM HEPES. 16 microliters of the cell suspension (3200 cells) was added to each well of a poly-D-lysine 384 well plate, and the cells were incubated overnight to allow the cells to adhere. The following day an eleven point, serial semilog dilution of each compound was added to the cells in 16 μL at a final concentration ranging from 0.3-0.000003 μM. At 4 or 24 hr post compound addition, the cells were fixed (10% formalin in PBS) for 20 minutes. Cells were permeablized in PBS 0.1% Triton and blocked with LICOR blocking buffer (50 μl/well, 90′). The wells were then incubated overnight at 4° C. with SP1 rabbit monoclonal Ab (Thermo Scientific) diluted 1:1000 in LICOR blocking buffer/0.1% Tween-20. Wells which were treated with blocking buffer with Tween but no antibody were used as a background control. Wells were washed with 0.1% Tween-20/PBS and then incubated in goat anti-rabbit IRDye™ 800 CW (LICOR Inc.; 1:10000) and DRAQ5 DNA dye (1:2000 for 2 mM stock) diluted in LICOR blocking buffer containing 0.1% Tween-20 and 0.01% SDS for 60 minutes. Cells were washed (50 μl/well, 5′ each) in 0.1% Tween-20/PBS. Plates were scanned on a LICOR Odyssey infrared imaging system. Integrated intensities in the 800 nm channel and 700 nm channel were measured to determine levels of ER and DNA respectively. Percent ER levels were determined as follows: (Integrated intensity 800 nm sample/integrated intensity 700 nm sample)/(Integrated intensity 800 nm untreated cells/integrated intensity 700 nm untreated cells)×100=% ER levels.

Consider 16 compounds from patent publication US9586952B2, “Polycyclic estrogen receptor modulators and uses thereof” (SERAGON PHARMACEUTICALS, INC., priority 2013, dated 2017).

As a reminder, the IC50 is the concentration that gives 50% inhibition. Consider `O=C(O)/C=C/c1ccc(/C(=C(\c2ccccc2)C2CCC2)c2ccc(-c3cn[nH]c3)cc2)cc1` [Example 1, (E)-3-(4-((E)-1-(4-(1H-Pyrazol-4-yl)phenyl)-2-cyclobutyl-2-phenylvinyl)phenyl)acrylic acid], for which, in assay [1], the “MCF7 Viability Assay Max Response” value is reported as “++ (++ = a single % value ≧ 40%)” and the IC50 is no more than 100 nM. Further, in assay [2], the Emax was no less than 40% and the DC50 was no more than 100 nM.

As for `CC/C(=C(/c1ccc(/C=C/C(=O)O)cc1)c1ccc(-c2cncs2)cc1)c1ccc(F)cc1Cl` [Example 2, (E)-3-(4-((E)-2-(2-Chloro-4-fluorophenyl)-1-(4-(thiazol-5-yl)phenyl)but-1-en-1-yl)phenyl)acrylic acid], in assay [1], the “MCF7 Viability Assay Max Response” value was “++ (++ = a single % value ≧ 40%)” and the IC50 is no more than 100 nM. In assay [2], the Emax was no less than 40% and the DC50 is no more than 100 nM.

For the compound `N#Cc1ccc(/C(=C(\c2ccc(/C=C/C(=O)O)cc2)c2ccc(-c3cn[nH]c3)cc2)C2CCC2)c(Cl)c1` [Example 3, (E)-3-(4-((E)-1-(4-(1H-Pyrazol-4-yl)phenyl)-2-(2-chloro-4-cyanophenyl)-2-cyclobutylvinyl)phenyl) acrylic acid], in assay [1], the “MCF7 Viability Assay Max Response” value was “++ (++ = a single % value ≧ 40%)” and the IC50 was no more than 100 nM. For the same compound, in assay [2], the Emax was no less than 40% and the DC50 was no more than 100 nM.

On to `COc1ccc(/C(=C(\c2ccc(/C=C/C(=O)O)cc2)c2ccc(N3CCOCC3)cc2)C2CCC2)c(Cl)c1` [Example 4, (E)-3-(4-((E)-2-(2-Chloro-4-methoxyphenyl)-2-cyclobutyl-1-(4-morpholinophenyl)vinyl)phenyl)acrylic acid], for which, in assay [1], the “MCF7 Viability Assay Max Response” value is on record as “++ (++ = a single % value ≧ 40%)” and the IC50 is no more than 100 nM. Besides, in assay [2], the Emax was no less than 40% and the DC50 was no more than 100 nM.

Turning to `N#Cc1ccc(/C(=C(\c2ccc(/C=C/C(=O)O)cc2)c2ccc(-c3cncs3)cc2)C2CCC2)c(Cl)c1` [Example 5, (E)-3-(4-((E)-2-(2-Chloro-4-cyanophenyl)-2-cyclobutyl-1-(4-(thiazol-5-yl)phenyl)vinyl)phenyl)acrylic acid], in assay [1], the “MCF7 Viability Assay Max Response” value is “++ (++ = a single % value ≧ 40%)” and the IC50 is no more than 100 nM. In addition, in assay [2], the Emax is no less than 40% and the DC50 is no more than 100 nM.

For `CC/C(=C(/c1ccc(/C=C/C(=O)O)cc1)c1ccc(-c2ccn[nH]2)cc1)c1ccccc1` [Example 6, (E)-3-(4-((E)-1-(4-(1H-Pyrazol-5-yl)phenyl)-2-phenylbut-1-en-1-yl)phenyl)acrylic acid], in assay [1], the “MCF7 Viability Assay Max Response” value is given as “++ (++ = a single % value ≧ 40%)” and the IC50 is greater than 100 nM. Moreover, in assay [2], the Emax is no less than 40% and the DC50 was no more than 100 nM.

As for `CC/C(=C(/c1ccc(/C=C/C(=O)O)cc1)c1cccc(-c2ccn[nH]2)c1)c1ccccc1` [Example 7, (E)-3-(4-((E)-1-(3-(1H-Pyrazol-5-yl)phenyl)-2-phenylbut-1-en-1-yl)phenyl)acrylic acid], in assay [1], the “MCF7 Viability Assay Max Response” value is reported as “+ (+ = a single % value < 40%)” and the IC50 is greater than 100 nM. In addition, in assay [2], the Emax is no less than 40% and the DC50 was greater than 100 nM.

Regarding `CC/C(=C(/c1ccc(/C=C/C(=O)O)cc1)c1ccc(-c2nccs2)cc1)c1ccccc1` [Example 8, (E)-3-(4-((E)-2-Phenyl-1-(4-(thiazol-2-yl)phenyl)but-1-en-1-yl)phenyl)acrylic acid], in assay [1], the “MCF7 Viability Assay Max Response” value is listed as “++ (++ = a single % value ≧ 40%)” and the IC50 was greater than 100 nM. For the same compound, in assay [2], the Emax was no less than 40% and the DC50 was no more than 100 nM.

As to `CC/C(=C(/c1ccc(/C=C/C(=O)O)cc1)c1ccc(-c2cncs2)cc1)c1ccccc1` [Example 9, (E)-3-(4-((E)-2-Phenyl-1-(4-(thiazol-5-yl)phenyl)but-1-en-1-yl)phenyl)acrylic acid], in assay [1], the “MCF7 Viability Assay Max Response” value was “++ (++ = a single % value ≧ 40%)” and the IC50 is no more than 100 nM. In assay [2], the Emax was no less than 40% and the DC50 was no more than 100 nM.

With `CC/C(=C(/c1ccc(/C=C/C(=O)O)cc1)c1ccc(-c2cscn2)cc1)c1ccccc1` [Example 10, (E)-3-(4-((E)-2-Phenyl-1-(4-(thiazol-4-yl)phenyl)but-1-en-1-yl)phenyl)acrylic acid], in assay [1], the “MCF7 Viability Assay Max Response” value is “++ (++ = a single % value ≧ 40%)” and the IC50 was greater than 100 nM. In assay [2], the Emax is no less than 40% and the DC50 was no more than 100 nM.

As to `CC/C(=C(/c1ccc(/C=C/C(=O)O)cc1)c1cccc(-c2nccs2)c1)c1ccccc1` [Example 11, (E)-3-(4-((E)-2-Phenyl-1-(3-(thiazol-2-yl)phenyl)but-1-en-1-yl)phenyl)acrylic acid], in assay [1], the “MCF7 Viability Assay Max Response” value is given as “+ (+ = a single % value < 40%)” and the IC50 is greater than 100 nM. In addition, in assay [2], the Emax was less than 40% and the DC50 was greater than 100 nM.

Turning to `CC/C(=C(/c1ccc(/C=C/C(=O)O)cc1)c1cccc(-c2cscn2)c1)c1ccccc1` [Example 12, (E)-3-(4-((E)-2-Phenyl-1-(3-(thiazol-4-yl)phenyl)but-1-en-1-yl)phenyl)acrylic acid], in assay [1], the “MCF7 Viability Assay Max Response” value is listed as “+ (+ = a single % value < 40%)” and the IC50 is greater than 100 nM. For the same compound, in assay [2], the Emax was less than 40% and the DC50 is greater than 100 nM.

`O=C(O)/C=C/c1ccc(/C(=C(\c2ccccc2)C2CCC2)c2ccc(-c3cncs3)cc2)cc1` [Example 13, (E)-3-(4-((E)-2-Cyclobutyl-2-phenyl-1-(4-(thiazol-5-yl)phenyl)vinyl)phenyl)acrylic acid]: in assay [1], the “MCF7 Viability Assay Max Response” value is “++ (++ = a single % value ≧ 40%)” and the IC50 was no more than 100 nM. Also, in assay [2], the Emax was no less than 40% and the DC50 is no more than 100 nM.

In the case of `CC/C(=C(/c1ccc(/C=C/C(=O)O)cc1)c1ccc(-c2cccnc2)cc1)c1ccccc1` [Example 14, (E)-3-(4-((E)-2-Phenyl-1-(4-(pyridin-3-yl)phenyl)but-1-en-1-yl)phenyl)acrylic acid], in assay [1], the “MCF7 Viability Assay Max Response” value is “++ (++ = a single % value ≧ 40%)” and the IC50 is greater than 100 nM. Also, in assay [2], the Emax is no less than 40% and the DC50 is no more than 100 nM.

Consider `CC/C(=C(/c1ccc(/C=C/C(=O)O)cc1)c1ccc(-c2cnsc2)cc1)c1ccccc1` [Example 15, (E)-3-(4-((E)-1-(4-(Isothiazol-4-yl)phenyl)-2-phenylbut-1-en-1-yl)phenyl)acrylic acid], for which, in assay [1], the “MCF7 Viability Assay Max Response” value was “++ (++ = a single % value ≧ 40%)” and the IC50 was greater than 100 nM. Moreover, in assay [2], the Emax is no less than 40% and the DC50 was no more than 100 nM.

Consider `CC/C(=C(/c1ccc(/C=C/C(=O)O)cc1)c1ccc(N2CCOCC2)cc1)c1ccccc1` [Example 16, (E)-3-(4-((E)-1-(4-Morpholinophenyl)-2-phenylbut-1-en-1-yl)phenyl)acrylic acid], for which, in assay [1], the “MCF7 Viability Assay Max Response” value is “++ (++ = a single % value ≧ 40%)” and the IC50 was no more than 100 nM. In assay [2], the Emax is no less than 40% and the DC50 is no more than 100 nM.
